Assay results published in patent US7767819B2, “Thiazolylimidazole derivatives and their use as inhibitors of microsomal triglyceride transfer protein” (Merck Patent GmbH, priority 2004, dated 2010).

Experiments:
[1] = biological target: T1, microsomal triglyceride transfer protein (MTP) (Mesocricetus auratus, UniProt P55158); test: Inhibition of MTP activity (transfer of [3H]-triolein from donor liposomes to biotinylated LDL, SPA); assay type: biochemical; details: MTP from golden hamster liver microsomes; incubation 18-24 hours at 37° C.; read-out: IC50 (concentration that allows a 50% inhibition of MTP)
T1 construct: The supernatant comprising the soluble MTP is dialysed against Tris/HCl 150 mM; from tissue; host or cells: golden hamster liver microsomes, deoxycholate-solubilised supernatant
T1 sequence (P55158 19-895): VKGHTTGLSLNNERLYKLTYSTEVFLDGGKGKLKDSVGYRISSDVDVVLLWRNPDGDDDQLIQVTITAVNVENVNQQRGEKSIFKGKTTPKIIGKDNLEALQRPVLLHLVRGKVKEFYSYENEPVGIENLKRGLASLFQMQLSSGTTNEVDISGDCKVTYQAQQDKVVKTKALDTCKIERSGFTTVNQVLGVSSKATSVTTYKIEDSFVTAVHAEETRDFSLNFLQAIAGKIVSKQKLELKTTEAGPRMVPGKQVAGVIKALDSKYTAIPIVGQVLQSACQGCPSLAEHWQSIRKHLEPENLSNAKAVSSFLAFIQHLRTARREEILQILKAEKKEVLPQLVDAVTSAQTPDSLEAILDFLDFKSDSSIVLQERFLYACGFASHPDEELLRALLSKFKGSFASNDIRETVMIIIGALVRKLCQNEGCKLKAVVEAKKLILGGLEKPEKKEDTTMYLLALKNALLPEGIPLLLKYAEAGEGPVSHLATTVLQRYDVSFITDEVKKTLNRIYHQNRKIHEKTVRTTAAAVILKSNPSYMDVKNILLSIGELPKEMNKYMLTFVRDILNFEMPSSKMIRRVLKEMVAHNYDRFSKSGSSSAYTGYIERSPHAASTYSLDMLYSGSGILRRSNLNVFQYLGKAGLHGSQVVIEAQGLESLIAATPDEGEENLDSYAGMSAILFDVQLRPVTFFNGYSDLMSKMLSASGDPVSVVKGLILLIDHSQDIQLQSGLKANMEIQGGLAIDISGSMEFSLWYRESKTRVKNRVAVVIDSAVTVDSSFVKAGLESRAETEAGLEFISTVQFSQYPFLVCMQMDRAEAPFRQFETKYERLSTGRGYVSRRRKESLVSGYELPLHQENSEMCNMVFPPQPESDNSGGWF
Procedure: Analysis of the Inhibition of MTP Activity
The inhibition of the activity of microsomal triglyceride transfer protein (MTP) was tested by using the following operating protocol.
The inhibition of MTP activity with a compound can be quantified by observing the inhibition of the transfer of a labelled triglyceride, from a donor particle to an acceptor particle, in the presence of MTP. The procedure for the preparation of MTP is based on the method by Wetterau and Zilversmit (Biochem. Biophys. Acta (1986) 875, 610). A few grams of golden hamster liver are taken and then rinsed several times in a 250 mM sucrose solution at 0° C. All the following steps proceed at +4° C. A homogenate at a concentration of 50% in 250 mM sucrose is prepared using a Teflon mill and then centrifuged for 10 minutes at 10 000×g at +4° C. The supernatant is then centrifuged at 105 000×g for 75 minutes at +4° C. The supernatant is discarded and the microsomal pellet is taken up in 3 ml (per g of starting liver) of Tris/HCl 150 mM pH 8.0. 1 ml aliquot fractions are stored at −80° C. until the time of use.
After thawing a fraction of microsomes (1 ml), 12 ml of refrigerated Tris/HCl 50 mM, KCl 50 mM, MgCl2 5 mM pH 7.4 buffers and 1.2 ml of deoxycholate (0.54% in water) are added. After incubation for 30 minutes at +4° C. with gentle agitation, the suspension is centrifuged at 105 000×g for 75 minutes. The supernatant comprising the soluble MTP is dialysed against Tris/HCl 150 mM, NaCl 40 mM, EDTA 1 mM, 0.02% sodium azide pH 7.4 buffer (5 times one litre over 2-3 days). The MTP is stored at +4° C., is stable for at least 30 days and is used in unmodified form in the test.
The donor particles (liposomes) are prepared from 208 μl of L-phosphatidylcholine at a concentration of 10 mg/ml in chloroform, and 480 μl of [3H]-triolein at a concentration of 0.5 mCi/ml in toluene. After stirring, the solution is evaporated under nitrogen, taken up in 6 ml of Tris/HCl 50 mM, KCl 50 mM, MgCl2 5 mM pH 7.4 buffer and incubated in an ultrasound bath for 30 minutes at room temperature. The liposomes are stored at +4° C. and sonicated again for 10 minutes before each use.
The acceptor particles are biotinylated low density lipoproteins (LDL-biot). These particles are supplied by the company Amersham.
The reaction mixture is prepared in untreated ½ well white plates (Corning Costar) by addition, in the following order, of: 5 μl of HEPES 50 mM, NaCl-150 mM, BSA 0.1% (w/v), 0.05% sodium azide (w/v), pH 7.4 buffer; 5 μl of liposomes; 5 μl of LDL-biot; 5 μl of test products in DMSO; 5 μl of MTP. After incubation for 18-24 hours at 37° C., the reaction is stopped by adding 100 μl of Amersham SPA (scintillation proximity assay) beads coupled to streptavidin, and the radioactivity is counted using a Top Count (Packard) machine at least one hour later. The inhibition of the transfer of the triglycerides with a compound is reflected by a reduction in the transferred radioactivity.
The results are expressed in terms of the IC50, i.e. the concentration that allows a 50% inhibition of MTP.

[2] = tested on: apo B secretion in HepG2 cells; test: Secretion of apo B in the HepG2 human cell line (sandwich ELISA); assay type: cell-based; details: 24 hours incubation, culture supernatant, ELISA for human apo B, read-out: IC50 (concentration that produces a 50% inhibition of apo B secretion in the HepG2 cells)
Procedure: Analysis of the Secretion of Apo B in the HepG2 Human Cell Line:
The activity of a compound according to the invention can be evaluated by measuring the inhibition of apo B secretion in HepG2 cells.
The HepG2 cells (ECACC-No. 85011430) are used as model in the study of the in vitro hepatic secretion of lipoproteins (Dixon J. and Ginsberg H., J. Lipid. Res., 1993, 34, 167-179).
The HepG2 cells are cultured in Dulbecco's modified Eagle's medium comprising 10% foetal calf serum (DMEM and FBS-Gibco) in 96-well plates under an atmosphere of 5% carbon dioxide for 24 hours (about 70% confluence).
The test compounds are dissolved at a concentration of 2 or 10 mM in dimethyl sulfoxide (DMSO). Serial dilutions (1:3.16) are made in DMSO and are:added (1:200—Robot Multimek Beckman) to the growth medium (200 μl) and then finally incubated for 24 hours in the various wells containing the HepG2 cells.
The 24-hour culture supernatant diluted to 1:5 (phosphate-buffered saline: PBS comprising 1% bovine serum albumin) is tested according to a sandwich-ELISA method specific for human apo B.
The results are expressed in terms of IC50, i.e. the concentration that produces a 50% inhibition of apo B secretion in the HepG2 cells.

IC50 [1] [nM] | IC50 [2] [nM] | SMILES
320 | 369 | CCn1c(-c2csc(C3CCN(C(=O)c4cccc(C)c4-c4ccc(OC(F)(F)F)cc4)CC3)n2)nc(-c2ccccc2)c1C [Example 1, {4-[4-(1-Ethyl-5-methyl-4-phenyl-1H-imidazol-2-yl)thiazol-2-yl]piperid-1-yl}(6-methyl-4′-trifluoromethoxybiphenyl-2-yl)methanone]
300 | 616 | Cc1c(-c2ccccc2)nc(-c2csc(C3CCN(C(=O)c4ccccc4-c4ccc(C(F)(F)F)cc4)CC3)n2)n1C [Example 2, {4-[4-(1,5-dimethyl-4-phenyl-1H-imidazol-2-yl)thiazol-2-yl]piperid-1-yl}(4′-trifluoromethylbiphenyl-2-yl)methanone]
270 | 390 | CCn1c(-c2csc(C3CCN(C(=O)c4ccccc4-c4ccc(C(F)(F)F)cc4)CC3)n2)nc(-c2ccccc2)c1C [Example 3, {4-[4-(1-ethyl-5-methyl-4-phenyl-1H-imidazol-2-yl)thiazol-2-yl]piperid-1-yl}(4′-trifluoromethylbiphenyl-2-yl)methanone]
816 | 1570 | CCn1c(-c2csc(C3CCN(C(=O)c4ccccc4-c4ccc(C(F)(F)F)cc4)CC3)n2)nc(-c2cccnc2)c1C [Example 4, {4-[4-(1-ethyl-5-methyl-4-(pyrid-3-yl)-1H-imidazol-2-yl)thiazol-2-yl]-piperid-1-yl}(4′-trifluoromethylbiphenyl-2-yl)methanone]
2540 | 2620 | CCn1c(-c2csc(C3CCN(C(=O)c4ccccc4-c4ccc(C(F)(F)F)cc4)CC3)n2)nc(-c2ccccn2)c1C [Example 5, {4-[4-(1-ethyl-5-methyl-4-(pyrid-2-yl)-1H-imidazol-2-yl)thiazol-2-yl]-piperid-1-yl}(4′-trifluoromethylbiphenyl-2-yl)methanone]
1830 | 2300 | CCn1c(-c2csc(C3CCN(C(=O)c4cccc(C)c4-c4ccc(OC(F)(F)F)cc4)CC3)n2)nc(-c2ccccn2)c1C [Example 6, {4-[4-(1-ethyl-5-methyl-4-(pyrid-2-yl)-1H-imidazol-2-yl)thiazol-2-yl]-piperid-1-yl}(6-methyl-4′-trifluoromethoxybiphenyl-2-yl)methanone]
 | 2090 | CCn1c(-c2csc(C3CCCN(C(=O)c4ccccc4-c4ccc(C(F)(F)F)cc4)C3)n2)nc(-c2ccccc2)c1C (stereo not shown) [Example 7, {3-[4-(1-ethyl-5-methyl-4-phenyl-1H-imidazol-2-yl)thiazol-2-yl]piperid-1-yl}(4′-trifluoromethylbiphenyl-2-yl)methanone]
